# Source: patent US11725037B2, “Peptide dual agonists of GIPR and GLP2R” (University of Copenhagen, priority 2017, dated 2023)
# Peptide text beside a SMILES is read from it. * marks the point of attachment. Palmitoyl = CCCCCCCCCCCCCCCC(=O)*
# Key:
# [1] = biological target: T1, human GLP-2 receptor (Homo sapiens, UniProt O95838); test: cAMP accumulation assay (HitHunter cAMP XS) in transiently transfected COS-7 cells expressing the human GLP-2 receptor; assay type: cell-based; settings: for Emax at 10 µM: COS-7, read-out: Emax (10 μM), GLP-2 receptor; for EC50: logEC50, GLP-2 receptor, cAMP, COS-7
# T1 construct: host or cells: COS-7 (transient, calcium phosphate; pCMV-Script vector)
# T1 sequence (O95838 1-553): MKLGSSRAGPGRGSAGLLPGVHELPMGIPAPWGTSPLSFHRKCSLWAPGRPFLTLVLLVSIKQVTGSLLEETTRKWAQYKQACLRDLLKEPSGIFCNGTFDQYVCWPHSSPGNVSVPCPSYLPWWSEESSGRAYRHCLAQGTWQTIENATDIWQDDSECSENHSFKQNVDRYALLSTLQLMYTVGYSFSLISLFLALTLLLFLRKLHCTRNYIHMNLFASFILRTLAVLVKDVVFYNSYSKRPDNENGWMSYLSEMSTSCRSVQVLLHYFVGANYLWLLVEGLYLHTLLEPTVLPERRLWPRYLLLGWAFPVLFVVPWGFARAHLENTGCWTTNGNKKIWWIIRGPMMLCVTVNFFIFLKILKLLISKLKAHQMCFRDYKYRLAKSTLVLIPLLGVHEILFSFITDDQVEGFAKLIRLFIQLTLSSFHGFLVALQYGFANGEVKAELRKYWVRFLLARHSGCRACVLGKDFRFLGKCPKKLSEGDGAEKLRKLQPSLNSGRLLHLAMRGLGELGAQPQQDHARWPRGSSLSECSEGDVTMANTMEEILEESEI
# Procedure: (§1) The day after, the cells were washed twice with Hepes buffered saline (HBS) buffer and incubated with HBS and 1 mM 3-isobutyl-1-methylxanthine (IBMX) for 30 min at 37° C. Ligands were added and incubated for 30 min at 37° C. The HitHunter™ cAMP XS assay (DiscoveRx) was carried out according to the manufacturer's instructions.
# [2] = biological target: T2, human GIP receptor (Homo sapiens, UniProt P48546); test: cAMP accumulation assay (HitHunter cAMP XS) in transiently transfected COS-7 cells expressing the human GIP receptor; assay type: cell-based; settings: for Emax at 10 µM: COS-7, read-out: Emax (10 μM), GIP receptor; for EC50: cAMP, COS-7
# T2 construct: host or cells: COS-7 (transient, calcium phosphate; pCMV-Script vector)
# T2 sequence (P48546 22-466): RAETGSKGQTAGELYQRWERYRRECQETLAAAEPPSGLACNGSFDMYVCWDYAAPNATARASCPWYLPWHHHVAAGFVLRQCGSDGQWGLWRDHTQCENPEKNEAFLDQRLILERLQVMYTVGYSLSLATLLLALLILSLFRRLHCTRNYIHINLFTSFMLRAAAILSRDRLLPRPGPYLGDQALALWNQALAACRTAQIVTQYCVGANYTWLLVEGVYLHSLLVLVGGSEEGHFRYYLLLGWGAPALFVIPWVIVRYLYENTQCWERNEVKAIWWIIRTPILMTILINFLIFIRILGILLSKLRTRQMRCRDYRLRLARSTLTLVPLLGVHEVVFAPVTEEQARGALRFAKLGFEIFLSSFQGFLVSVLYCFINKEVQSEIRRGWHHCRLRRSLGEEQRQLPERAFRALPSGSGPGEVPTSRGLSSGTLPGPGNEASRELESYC
# Procedure: as §1
# [3] = logEC50, GIP receptor, Table 2, log value
Emax at 10 µM [1] [%],"fold (fold change of native GLP-2), GLP-2 receptor ([1]; Table 2, EC50 relative to native GLP-2) [fold]",EC50 ([1]; Table 2) [nM],Emax at 10 µM [2] [%],"fold (fold change of native GIP), GIP receptor ([2]; Table 2, EC50 relative to native GIP) [fold]","EC50 [2, 3] [nM]","EC50 ([2]; EC50(nM), GIP receptor, Table 2) [nM]",Structure (SMILES)
57,1.2,1.41,81,8.5,–,–,CCCCCCCCCCCCCCCC(=O)NCCCC[C@H](NC(=O)[C@@H](NC(=O)[C@H](CCC(N)=O)NC(=O)[C@@H](NC(=O)[C@H](CC(C)C)NC(=O)[C@H](Cc1c[nH]c2ccccc12)NC(=O)[C@H](CC(N)=O)NC(=O)[C@@H](NC(=O)[C@H](Cc1ccccc1)NC(=O)[C@H](CC(=O)O)NC(=O)[C@H](CCCNC(=N)N)NC(=O)[C@H](C)NC(=O)[C@H](C)NC(=O)[C@H](CC(C)C)NC(=O)[C@H](CC(N)=O)NC(=O)[C@H](CC(=O)O)NC(=O)[C@H](CC(C)C)NC(=O)[C@@H](NC(=O)[C@@H](NC(=O)[C@H](CO)NC(=O)[C@H](Cc1ccc(O)cc1)NC(=O)[C@H](CC(=O)O)NC(=O)[C@H](CO)NC(=O)[C@H](CO)NC(=O)[C@H](Cc1ccccc1)NC(=O)[C@@H](NC(=O)CNC(=O)[C@H](CC(=O)O)NC(=O)[C@H](C)NC(=O)[C@@H](N)Cc1c[nH]cn1)[C@@H](C)O)[C@@H](C)O)[C@@H](C)CC)[C@@H](C)CC)[C@@H](C)CC)[C@@H](C)O)C(=O)N[C@H](C(=O)N[C@H](C(=O)N[C@@H](CC(=O)O)C(=O)O)[C@@H](C)O)[C@@H](C)CC [Co-agonist 23] (H-HADGTFSSDYSTILDNLAARDFINWLIQTK(Palmitoyl)ITD-OH; N-terminus and C-terminus assumed)
112,–,–,100,–,0.2,–,CC[C@H](C)[C@H](NC(=O)[C@H](Cc1ccccc1)NC(=O)[C@H](CC(=O)O)NC(=O)[C@H](CCCCN)NC(=O)[C@H](C)NC(=O)[C@H](C)NC(=O)[C@H](CC(C)C)NC(=O)[C@H](CC(N)=O)NC(=O)[C@H](CC(=O)O)NC(=O)[C@H](CC(C)C)NC(=O)[C@@H](NC(=O)[C@@H](NC(=O)[C@H](CO)NC(=O)[C@H](Cc1ccc(O)cc1)NC(=O)[C@H](CC(=O)O)NC(=O)[C@H](CO)NC(=O)[C@@H](NC(=O)[C@H](Cc1ccccc1)NC(=O)[C@@H](NC(=O)CNC(=O)[C@H](CC(=O)O)NC(=O)[C@H](C)NC(=O)[C@@H](N)Cc1c[nH]cn1)[C@@H](C)O)[C@@H](C)CC)[C@@H](C)O)[C@@H](C)CC)C(=O)N[C@@H](CC(N)=O)C(=O)N[C@@H](Cc1c[nH]c2ccccc12)C(=O)N[C@@H](CC(C)C)C(=O)N[C@H](C(=O)N[C@@H](CCC(N)=O)C(=O)N[C@H](C(=O)N[C@@H](CCCCN)C(=O)N[C@H](C(=O)N[C@H](C(=O)N[C@@H](CCCCN)C(=O)O)[C@@H](C)O)[C@@H](C)CC)[C@@H](C)O)[C@@H](C)CC [Co-agonist 28]
82,–,17.4,115,–,1.82,1.82,CCCCCCCCCCCCCCCC(=O)N[C@@H](Cc1c[nH]cn1)C(=O)N[C@@H](C)C(=O)N[C@@H](CC(=O)O)C(=O)NCC(=O)N[C@H](C(=O)N[C@@H](Cc1ccccc1)C(=O)N[C@H](C(=O)N[C@@H](CO)C(=O)N[C@@H](CC(=O)O)C(=O)N[C@@H](Cc1ccc(O)cc1)C(=O)N[C@@H](CO)C(=O)N[C@H](C(=O)N[C@H](C(=O)N[C@@H](CC(C)C)C(=O)N[C@@H](CC(=O)O)C(=O)N[C@@H](CC(N)=O)C(=O)N[C@@H](CC(C)C)C(=O)N[C@@H](C)C(=O)N[C@@H](C)C(=O)N[C@@H](CCCNC(=N)N)C(=O)N[C@@H](CC(=O)O)C(=O)N[C@@H](Cc1ccccc1)C(=O)N[C@H](C(=O)N[C@@H](CC(N)=O)C(=O)N[C@@H](Cc1c[nH]c2ccccc12)C(=O)N[C@@H](CC(C)C)C(=O)N[C@H](C(=O)N[C@@H](CCC(N)=O)C(=O)N[C@H](C(=O)N[C@@H](CCCCN)C(=O)N[C@H](C(=O)N[C@H](C(=O)N[C@@H](CCCCN)C(=O)O)[C@@H](C)O)[C@@H](C)CC)[C@@H](C)O)[C@@H](C)CC)[C@@H](C)CC)[C@@H](C)CC)[C@@H](C)O)[C@@H](C)CC)[C@@H](C)O [Co-agonist 29]
